The values that follow come from paper PMC5113906, “Ligand autoradiographical quantification of histamine H3 receptor in human dementia with Lewy bodies” (Pharmacological Research, 2016).

In this experiment the target is T1, histamine H3 receptor (hH3R 445) (Homo sapiens, UniProt Q9Y5N1).
T1 construct: gene HRH3; hH3 445 isoform (also hH3 365), transiently expressed in HEK293 cells
The experiment is described as follows: [3H]GSK189254 saturation radioligand binding; autoradiography on human brain sections.

Structures are written as SMILES.

T1 sequence (Q9Y5N1 whole entry, canonical isoform): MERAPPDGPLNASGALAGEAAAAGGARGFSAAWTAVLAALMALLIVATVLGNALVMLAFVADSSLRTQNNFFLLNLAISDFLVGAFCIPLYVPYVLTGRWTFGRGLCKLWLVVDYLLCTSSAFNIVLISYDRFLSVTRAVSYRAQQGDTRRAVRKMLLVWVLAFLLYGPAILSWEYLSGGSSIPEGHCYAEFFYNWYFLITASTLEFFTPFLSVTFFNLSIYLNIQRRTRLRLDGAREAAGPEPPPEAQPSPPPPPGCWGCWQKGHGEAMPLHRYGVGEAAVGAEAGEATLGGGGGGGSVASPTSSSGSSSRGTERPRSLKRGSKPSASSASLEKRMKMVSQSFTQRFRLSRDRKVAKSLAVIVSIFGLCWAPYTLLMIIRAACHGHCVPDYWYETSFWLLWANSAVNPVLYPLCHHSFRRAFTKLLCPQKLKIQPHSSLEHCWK

Consider `CNC(=O)c1ccc(Oc2ccc3c(c2)CCN(C2CCC2)CC3)nc1` [GSK189254], for which the affinity, expressed as Kd, was 0.16 ± 0.04 nM.

A word on the Kd: it is the free concentration of one partner at which half of the binding sites on the other are occupied at equilibrium, for simple one-to-one binding. A higher Kd goes with a looser complex.
